Measured values taken from patent publication US12448410B2, “Derivative of sarsasapogenin, pharmaceutical composition and use thereof” (Phytovent Biopharma, priority 2018, dated 2025).

What was measured:
Assay type in all cases: cell-based
A549 lung cancer cells = test: CTG cell proliferation, in vitro growth inhibition of A549 lung cancer cells; conditions: Homo sapiens, 72 hours, CellTiter-Glo
Description: (§1) Study of CTG Cell Proliferation—Inhibition of In-Vitro Growth of Various Tumor Cells by Sarsasapogenin Derivative
(§2) Tumor cells included: human A549 cells (lung cancer cells) (ATCC, Catalog No. CCL-185), HeLa cells (cervical cancer cells) (ATCC, Catalog No. CCL-2), HepG2 cells (liver cancer cells) (ATCC, Catalog No. HB-8065), A375 cells (melanoma cells) (ATCC, Catalog No. CRL-1619), MCF-7 (breast cancer cell) (ATCC, Catalog No. HTB-22), U87MG (brain glioma cell) (ATCC, Catalog No. HTB-14), LN229 (ATCC, Catalog No. CRL-2611), A172 (ATCC, Catalog No. CRL-1620), KNS-42 (JCRB, Catalog No. IF050356), BE(2)-C (ATCC, Catalog No. CRL-2268), U118MG (ATCC, Catalog No. HTB-15), SW-1088 (ATCC, Catalog No. HTB-12), and SH-SY5Y (CLS, Catalog No. 300154).
(§3) The aforementioned tumor cells were inoculated into clear-bottom white 96-well culture plates (Corning, Catalog No. CLS3903) containing specific medium at 1.8 to 15×10^3 cells per well, and were incubated in an incubator (37° C., 5% CO2) for 24 hours.
(§4) A 10 mM stock solution was prepared by using DMSO (Sigma, Catalog No. D2650) for each compound, diluted with medium to required concentrations (final concentration of DMSO: 0.2%) and added into each well with 2 replicate wells/concentration. The cells were incubated in the incubator at 37° C. and 5% CO2 for 72 hours. Then, 100 μL of CellTiter-Glo® cell activity assay reagent (Promega, Catalog No. G7573) was added into each well and well mixed using a shaker for 10 minutes to induce cytolysis. The 96-well plates were let stand at room temperature for 10 minutes to stabilize the luminous signals. With white bottom membranes attached to the bottoms of the culture plates, the plates were read using EnSpire system. Data were processed by XLfit software to give IC50 values.

U118MG = test: CTG cell proliferation, brain tumor cells U118MG; conditions: Homo sapiens, U-118-MG, 72 hours, CellTiter-Glo, read-out: Inhibition of in vitro growth of brain tumor cells (IC50)
Description: as §1, §2, §3, §4

A172 = test: CTG cell proliferation, brain tumor cells A172; conditions: Homo sapiens, A 172; A172, 72 hours, CellTiter-Glo; read-out: Inhibition of in vitro growth of brain tumor cells (IC50)
Description: as §1, §2, §3, §4

LN229 = test: CTG cell proliferation, brain tumor cells LN229; conditions: Homo sapiens, LN-229; LN229, 72 hours, CellTiter-Glo; read-out: Inhibition of in vitro growth of brain tumor cells (IC50)
Description: as §1, §2, §3, §4

BE(2)-C = test: CTG cell proliferation, brain tumor cells BE(2)-C; conditions: Homo sapiens, 72 hours, CellTiter-Glo, read-out: Inhibition of in vitro growth of brain tumor cells (IC50)
Description: as §1, §2, §3, §4

KNS-42 = test: CTG cell proliferation, brain tumor cells KNS-42; conditions: Homo sapiens; KNS-42, 72 hours, CellTiter-Glo; read-out: Inhibition of in vitro growth of brain tumor cells (IC50)
Description: as §1, §2, §3, §4

[1] = system: U87MG (brain glioma cell); test: CTG cell proliferation, brain tumor cells U87MG; conditions: Homo sapiens, U-87 MG, 72 hours, CellTiter-Glo, read-out: Inhibition of in vitro growth of brain tumor cells (IC50)
Description: as §1, §2, §3, §4

SW-1088 = test: CTG cell proliferation, brain tumor cells SW-1088; conditions: Homo sapiens, SW1088; SW-1088, 72 hours, CellTiter-Glo; read-out: Inhibition of in vitro growth of brain tumor cells (IC50)
Description: as §1, §2, §3, §4

SH-SY5Y = test: CTG cell proliferation, brain tumor cells SH-SY5Y; conditions: Homo sapiens, 72 hours, CellTiter-Glo, read-out: Inhibition of in vitro growth of brain tumor cells (IC50)
Description: as §1, §2, §3, §4

C[C@H]1CC[C@@]2(OC1)O[C@H]1C[C@H]3[C@@H]4CC[C@@H]5CC(NC(=O)CC(=O)NCC6CCN(C)CC6)CC[C@]5(C)[C@H]4CC[C@]3(C)[C@H]1[C@@H]2C (stereo partly drawn) [Example 7]
inhibition at 1 µM (A549 lung cancer cells): -0.84% | inhibition at 5 µM (A549 lung cancer cells): 91.7% | inhibition at 10 µM (A549 lung cancer cells): 99.9%

C[C@H]1CC[C@@]2(OC1)O[C@H]1C[C@H]3[C@@H]4CC[C@@H]5CC(NC(=O)CC(=O)NCCCN6CCOCC6)CC[C@]5(C)[C@H]4CC[C@]3(C)[C@H]1[C@@H]2C (stereo partly drawn) [Example 8]
inhibition at 1 µM (A549 lung cancer cells): 36.2% | inhibition at 5 µM (A549 lung cancer cells): 7.71% | inhibition at 10 µM (A549 lung cancer cells): 93.5%

C[C@H]1CC[C@@]2(OC1)O[C@H]1C[C@H]3[C@@H]4CC[C@@H]5CC(NC(=O)CC(=O)N6CCC(N7CCCCC7)CC6)CC[C@]5(C)[C@H]4CC[C@]3(C)[C@H]1[C@@H]2C (stereo partly drawn) [Example 9]
inhibition at 1 µM (A549 lung cancer cells): 2.09% | inhibition at 5 µM (A549 lung cancer cells): 22.9% | inhibition at 10 µM (A549 lung cancer cells): 97.8%

C[C@H]1CC[C@@]2(OC1)O[C@H]1C[C@H]3[C@@H]4CC[C@@H]5CC(NC(=O)CC(=O)N6CCN(C)CC6)CC[C@]5(C)[C@H]4CC[C@]3(C)[C@H]1[C@@H]2C (stereo partly drawn) [Example 5]
inhibition at 1 µM (A549 lung cancer cells): 1.37% | inhibition at 5 µM (A549 lung cancer cells): 48.3% | inhibition at 10 µM (A549 lung cancer cells): 95.9%

C[C@H]1CC[C@@]2(OC1)O[C@H]1C[C@H]3[C@@H]4CC[C@@H]5C[C@@H](NC(=O)CCN6CCN(C)CC6)CC[C@]5(C)[C@H]4CC[C@]3(C)[C@H]1[C@@H]2C [Example 2A]
IC50 (U118MG): 1.07 µM | IC50 (A172): 1.66 µM | IC50 (LN229): 1.62 µM | IC50 (BE(2)-C): 2.85 µM | IC50 (KNS-42): 1.77 µM | IC50 [1]: 1.56 µM | IC50 (SW-1088): 0.66 µM | IC50 (SH-SY5Y): 2.78 µM

C[C@H]1CC[C@@]2(OC1)O[C@H]1C[C@H]3[C@@H]4CC[C@@H]5CC(NC(=O)CN(C)C)CC[C@]5(C)[C@H]4CC[C@]3(C)[C@H]1[C@@H]2C (stereo partly drawn) [Example 3]
inhibition at 1 µM (A549 lung cancer cells): 1% | inhibition at 5 µM (A549 lung cancer cells): 86.2% | inhibition at 10 µM (A549 lung cancer cells): 99%

C[C@H]1CC[C@@]2(OC1)O[C@H]1C[C@H]3[C@@H]4CC[C@@H]5CC(NC(=O)C6CCN(C)CC6)CC[C@]5(C)[C@H]4CC[C@]3(C)[C@H]1[C@@H]2C (stereo partly drawn) [Example 1]
inhibition at 1 µM (A549 lung cancer cells): -5.25% | inhibition at 5 µM (A549 lung cancer cells): 31.1% | inhibition at 10 µM (A549 lung cancer cells): 87.6%

C[C@H]1CC[C@@]2(OC1)O[C@H]1C[C@H]3[C@@H]4CC[C@@H]5CC(NC(=O)CCN(C)C)CC[C@]5(C)[C@H]4CC[C@]3(C)[C@H]1[C@@H]2C (stereo partly drawn) [Example 4]
IC50 (U118MG): 1.93 µM | IC50 (A172): 3.04 µM | IC50 (LN229): 2.29 µM | IC50 (BE(2)-C): 3.31 µM | IC50 (KNS-42): 1.92 µM | inhibition at 1 µM (A549 lung cancer cells): 18.2% | inhibition at 5 µM (A549 lung cancer cells): 99% | inhibition at 10 µM (A549 lung cancer cells): 100% | IC50 [1]: 2.36 µM | IC50 (SW-1088): 2.72 µM | IC50 (SH-SY5Y): 2.8 µM

C[C@H]1CC[C@@]2(OC1)O[C@H]1C[C@H]3[C@@H]4CC[C@@H]5C[C@H](NC(=O)CCN6CCN(C)CC6)CC[C@]5(C)[C@H]4CC[C@]3(C)[C@H]1[C@@H]2C [Example 2B]
IC50 (U118MG): 5.17 µM | IC50 (A172): 3.84 µM | IC50 (LN229): 5.52 µM | IC50 (BE(2)-C): 7.9 µM | IC50 (KNS-42): 4.78 µM | IC50 [1]: 4.66 µM | IC50 (SW-1088): 2.75 µM | IC50 (SH-SY5Y): > 10 µM

C[C@H]1CC[C@@]2(OC1)O[C@H]1C[C@H]3[C@@H]4CC[C@@H]5CC(NC(=O)CC(=O)NC6CCN(C)CC6)CC[C@]5(C)[C@H]4CC[C@]3(C)[C@H]1[C@@H]2C (stereo partly drawn) [Example 6]
inhibition at 1 µM (A549 lung cancer cells): -6.51% | inhibition at 5 µM (A549 lung cancer cells): 82.2% | inhibition at 10 µM (A549 lung cancer cells): 99.8%

C[C@H]1CC[C@@]2(OC1)O[C@H]1C[C@H]3[C@@H]4CC[C@@H]5CC(NC(=O)CCN6CCN(C)CC6)CC[C@]5(C)[C@H]4CC[C@]3(C)[C@H]1[C@@H]2C (stereo partly drawn) [Example 2]
inhibition at 1 µM (A549 lung cancer cells): 95.3% | inhibition at 5 µM (A549 lung cancer cells): 98.1% | inhibition at 10 µM (A549 lung cancer cells): 100%

C[C@H]1CC[C@@]2(OC1)O[C@H]1C[C@H]3[C@@H]4CC[C@@H]5CC(NC(=O)CC(=O)N6CCN(CCN7CCCC7)CC6)CC[C@]5(C)[C@H]4CC[C@]3(C)[C@H]1[C@@H]2C (stereo partly drawn) [Example 12]
inhibition at 1 µM (A549 lung cancer cells): 4.5% | inhibition at 5 µM (A549 lung cancer cells): 89.6% | inhibition at 10 µM (A549 lung cancer cells): 98.5%

C[C@H]1CC[C@@]2(OC1)O[C@H]1C[C@H]3[C@@H]4CC[C@@H]5CC(NC(=O)CC(=O)N6CCNCC6)CC[C@]5(C)[C@H]4CC[C@]3(C)[C@H]1[C@@H]2C (stereo partly drawn) [Example 10]
inhibition at 1 µM (A549 lung cancer cells): 5.08% | inhibition at 5 µM (A549 lung cancer cells): 65.8% | inhibition at 10 µM (A549 lung cancer cells): 99.3%

C[C@H]1CC[C@@]2(OC1)O[C@H]1C[C@H]3[C@@H]4CC[C@@H]5CC(NC(=O)CC(=O)N6CC7CNCC7C6)CC[C@]5(C)[C@H]4CC[C@]3(C)[C@H]1[C@@H]2C (stereo partly drawn) [Example 11]
inhibition at 1 µM (A549 lung cancer cells): 3.86% | inhibition at 5 µM (A549 lung cancer cells): 57.3% | inhibition at 10 µM (A549 lung cancer cells): 97.2%
